Test results: publication PMC5564600 (Oncotarget, 2017)

Columns and labels:
Assay in all cases: biochemical
Type in all cases: binding
panel of 442 kinases [1] = target: T1, panel of 442 kinases (Homo sapiens, UniProt P07332); settings: FES; for remaining activity at 1 µM: read-out: % of control at 1 µM
T1 construct: purchased Ambit Biosciences (scanMAXX KINOMEscan)

panel of 442 kinases [2] = target: T2, panel of 442 kinases (Homo sapiens, UniProt Q8N4C8); settings: kinase MINK; for remaining activity at 1 µM: read-out: % of control at 1 µM
T2 construct: purchased Ambit Biosciences (scanMAXX KINOMEscan)
T2 sequence (Q8N4C8 whole entry): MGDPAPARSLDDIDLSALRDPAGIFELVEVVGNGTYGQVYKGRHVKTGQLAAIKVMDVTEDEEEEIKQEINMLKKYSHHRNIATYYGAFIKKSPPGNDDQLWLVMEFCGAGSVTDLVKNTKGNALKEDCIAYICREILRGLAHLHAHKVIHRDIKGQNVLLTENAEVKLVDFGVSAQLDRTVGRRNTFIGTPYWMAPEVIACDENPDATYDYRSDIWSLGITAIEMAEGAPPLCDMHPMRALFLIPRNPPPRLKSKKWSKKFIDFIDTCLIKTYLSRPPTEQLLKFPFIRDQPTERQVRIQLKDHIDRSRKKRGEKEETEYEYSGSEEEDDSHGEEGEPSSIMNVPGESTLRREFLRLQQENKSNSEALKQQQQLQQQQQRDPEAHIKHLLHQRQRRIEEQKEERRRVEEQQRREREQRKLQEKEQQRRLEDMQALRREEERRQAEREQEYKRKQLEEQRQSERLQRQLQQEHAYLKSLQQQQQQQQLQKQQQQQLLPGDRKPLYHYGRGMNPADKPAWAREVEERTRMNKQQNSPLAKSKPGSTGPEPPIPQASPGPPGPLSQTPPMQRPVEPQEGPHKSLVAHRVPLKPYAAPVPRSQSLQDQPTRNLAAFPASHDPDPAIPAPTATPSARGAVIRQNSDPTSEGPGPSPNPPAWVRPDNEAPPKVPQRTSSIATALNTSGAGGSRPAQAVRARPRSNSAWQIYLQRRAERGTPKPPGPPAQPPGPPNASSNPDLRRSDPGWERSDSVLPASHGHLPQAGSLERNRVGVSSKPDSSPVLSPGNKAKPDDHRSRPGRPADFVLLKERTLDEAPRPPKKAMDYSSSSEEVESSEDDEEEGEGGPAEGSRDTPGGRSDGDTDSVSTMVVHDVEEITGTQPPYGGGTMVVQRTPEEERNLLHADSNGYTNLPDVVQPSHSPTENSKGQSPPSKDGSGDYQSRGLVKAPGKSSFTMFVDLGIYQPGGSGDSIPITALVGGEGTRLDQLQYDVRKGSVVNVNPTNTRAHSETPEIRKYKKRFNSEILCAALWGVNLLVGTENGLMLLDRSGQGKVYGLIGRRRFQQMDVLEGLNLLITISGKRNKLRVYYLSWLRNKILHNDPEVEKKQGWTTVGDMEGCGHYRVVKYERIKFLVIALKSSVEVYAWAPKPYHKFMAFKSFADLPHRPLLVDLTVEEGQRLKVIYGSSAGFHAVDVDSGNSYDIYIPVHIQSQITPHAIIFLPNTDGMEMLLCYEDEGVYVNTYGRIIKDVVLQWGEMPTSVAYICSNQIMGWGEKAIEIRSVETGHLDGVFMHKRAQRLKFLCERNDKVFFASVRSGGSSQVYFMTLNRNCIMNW

panel of 442 kinases [3] = target: T3, panel of 442 kinases (Homo sapiens, UniProt P31152); settings: ERK4; for remaining activity at 1 µM: read-out: % of control at 1 µM
T3 construct: purchased Ambit Biosciences (scanMAXX KINOMEscan)
T3 sequence (P31152 whole entry): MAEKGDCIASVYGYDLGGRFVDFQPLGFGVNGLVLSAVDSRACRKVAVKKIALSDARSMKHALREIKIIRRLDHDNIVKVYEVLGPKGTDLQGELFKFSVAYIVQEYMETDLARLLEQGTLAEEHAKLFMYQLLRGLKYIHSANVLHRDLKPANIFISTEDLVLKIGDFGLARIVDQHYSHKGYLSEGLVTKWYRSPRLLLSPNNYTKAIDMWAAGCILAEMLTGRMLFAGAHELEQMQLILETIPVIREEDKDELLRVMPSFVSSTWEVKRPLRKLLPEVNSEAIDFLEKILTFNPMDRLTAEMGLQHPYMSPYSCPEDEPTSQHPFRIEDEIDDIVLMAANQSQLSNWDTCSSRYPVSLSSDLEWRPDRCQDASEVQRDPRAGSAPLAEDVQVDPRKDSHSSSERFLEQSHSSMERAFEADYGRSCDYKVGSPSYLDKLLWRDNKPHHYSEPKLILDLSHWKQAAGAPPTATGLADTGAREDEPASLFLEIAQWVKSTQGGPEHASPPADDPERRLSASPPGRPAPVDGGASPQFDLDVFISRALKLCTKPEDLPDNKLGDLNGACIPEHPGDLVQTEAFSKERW

panel of 442 kinases [4] = target: T4, panel of 442 kinases (Homo sapiens, UniProt P22455); settings: FGFR4; for remaining activity at 1 µM: read-out: % of control at 1 µM
T4 construct: purchased Ambit Biosciences (scanMAXX KINOMEscan)
T4 sequence (P22455 22-802): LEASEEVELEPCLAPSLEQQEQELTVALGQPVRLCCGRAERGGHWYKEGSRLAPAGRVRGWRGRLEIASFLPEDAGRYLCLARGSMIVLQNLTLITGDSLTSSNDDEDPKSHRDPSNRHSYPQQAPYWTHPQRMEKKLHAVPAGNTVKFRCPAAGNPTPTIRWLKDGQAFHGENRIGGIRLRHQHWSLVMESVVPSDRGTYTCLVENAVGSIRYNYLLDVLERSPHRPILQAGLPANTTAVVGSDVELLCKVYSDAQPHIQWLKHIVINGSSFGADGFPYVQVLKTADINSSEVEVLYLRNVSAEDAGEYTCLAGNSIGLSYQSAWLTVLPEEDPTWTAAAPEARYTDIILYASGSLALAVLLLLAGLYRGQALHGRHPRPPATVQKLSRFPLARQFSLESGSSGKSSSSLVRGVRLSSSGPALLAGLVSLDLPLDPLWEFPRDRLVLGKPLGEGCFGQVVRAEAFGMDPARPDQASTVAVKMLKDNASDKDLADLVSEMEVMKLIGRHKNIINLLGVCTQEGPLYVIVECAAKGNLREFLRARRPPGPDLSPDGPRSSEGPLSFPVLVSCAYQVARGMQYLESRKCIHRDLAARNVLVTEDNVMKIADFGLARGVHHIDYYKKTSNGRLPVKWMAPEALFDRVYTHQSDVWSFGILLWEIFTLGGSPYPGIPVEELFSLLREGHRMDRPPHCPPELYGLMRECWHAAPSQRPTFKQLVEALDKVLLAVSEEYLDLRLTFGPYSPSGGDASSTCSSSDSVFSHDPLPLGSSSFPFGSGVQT

panel of 442 kinases [5] = target: T5, panel of 442 kinases (Homo sapiens, UniProt P22607, G697C); settings: FGFR3(G697C); for remaining activity at 1 µM: read-out: % of control at 1 µM
T5 construct: purchased Ambit Biosciences (scanMAXX KINOMEscan)
T5 sequence (P22607 23-806 G697C): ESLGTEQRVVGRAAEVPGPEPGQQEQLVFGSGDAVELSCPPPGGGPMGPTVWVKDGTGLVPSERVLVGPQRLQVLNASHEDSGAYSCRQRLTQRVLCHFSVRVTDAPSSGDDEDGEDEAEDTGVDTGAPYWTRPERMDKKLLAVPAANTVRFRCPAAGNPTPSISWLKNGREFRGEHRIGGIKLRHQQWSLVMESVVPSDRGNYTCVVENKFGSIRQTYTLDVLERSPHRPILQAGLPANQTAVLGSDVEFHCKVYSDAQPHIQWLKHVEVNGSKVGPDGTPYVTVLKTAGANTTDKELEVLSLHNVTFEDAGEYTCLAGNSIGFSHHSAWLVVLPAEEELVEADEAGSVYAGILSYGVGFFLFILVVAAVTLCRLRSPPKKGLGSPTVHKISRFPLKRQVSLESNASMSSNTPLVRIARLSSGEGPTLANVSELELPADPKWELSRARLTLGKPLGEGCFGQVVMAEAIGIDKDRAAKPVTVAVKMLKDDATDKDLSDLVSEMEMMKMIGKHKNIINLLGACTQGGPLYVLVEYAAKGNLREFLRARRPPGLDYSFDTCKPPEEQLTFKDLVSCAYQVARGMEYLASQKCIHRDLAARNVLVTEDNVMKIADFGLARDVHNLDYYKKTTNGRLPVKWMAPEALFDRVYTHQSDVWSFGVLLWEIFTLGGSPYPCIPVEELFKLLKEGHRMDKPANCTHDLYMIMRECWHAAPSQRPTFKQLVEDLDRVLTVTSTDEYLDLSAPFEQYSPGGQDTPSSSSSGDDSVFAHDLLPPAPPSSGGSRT

panel of 442 kinases [6] = target: T6, panel of 442 kinases (Homo sapiens, UniProt O00444); settings: kinase PLK4; for remaining activity at 1 µM: read-out: PLK4 (% of control at 1 µM)
T6 construct: purchased Ambit Biosciences (scanMAXX KINOMEscan)
T6 sequence (O00444 1-970): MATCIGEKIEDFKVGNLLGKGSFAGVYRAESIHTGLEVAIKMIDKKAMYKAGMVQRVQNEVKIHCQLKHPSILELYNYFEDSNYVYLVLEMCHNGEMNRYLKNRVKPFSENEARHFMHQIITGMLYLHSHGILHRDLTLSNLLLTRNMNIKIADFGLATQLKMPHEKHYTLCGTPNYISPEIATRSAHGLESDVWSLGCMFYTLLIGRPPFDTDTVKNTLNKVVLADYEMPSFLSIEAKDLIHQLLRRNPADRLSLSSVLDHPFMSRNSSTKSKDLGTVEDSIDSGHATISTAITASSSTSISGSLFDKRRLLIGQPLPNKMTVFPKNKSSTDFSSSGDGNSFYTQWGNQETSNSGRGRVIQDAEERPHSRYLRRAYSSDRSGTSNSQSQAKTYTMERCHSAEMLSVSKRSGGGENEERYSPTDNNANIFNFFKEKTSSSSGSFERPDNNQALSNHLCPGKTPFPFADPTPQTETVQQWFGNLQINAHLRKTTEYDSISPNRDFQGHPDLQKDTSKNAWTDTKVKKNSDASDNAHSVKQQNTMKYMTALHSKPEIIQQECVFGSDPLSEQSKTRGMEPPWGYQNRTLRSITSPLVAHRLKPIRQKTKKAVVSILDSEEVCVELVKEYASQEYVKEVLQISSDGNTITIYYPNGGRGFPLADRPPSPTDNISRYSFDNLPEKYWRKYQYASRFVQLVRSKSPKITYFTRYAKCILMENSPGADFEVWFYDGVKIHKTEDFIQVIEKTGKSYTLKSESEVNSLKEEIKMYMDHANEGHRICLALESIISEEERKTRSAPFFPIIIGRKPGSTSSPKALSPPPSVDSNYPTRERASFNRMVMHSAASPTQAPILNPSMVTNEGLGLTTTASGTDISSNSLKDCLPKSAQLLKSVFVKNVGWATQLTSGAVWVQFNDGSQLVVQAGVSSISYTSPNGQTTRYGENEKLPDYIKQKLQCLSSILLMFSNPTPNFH

panel of 442 kinases [7] = target: T7, panel of 442 kinases (Homo sapiens, UniProt O43318); settings: kinase TAK1; for remaining activity at 1 µM: read-out: TAK1 (% of control at 1 µM)
T7 construct: purchased Ambit Biosciences (scanMAXX KINOMEscan)
T7 sequence (O43318 1-606): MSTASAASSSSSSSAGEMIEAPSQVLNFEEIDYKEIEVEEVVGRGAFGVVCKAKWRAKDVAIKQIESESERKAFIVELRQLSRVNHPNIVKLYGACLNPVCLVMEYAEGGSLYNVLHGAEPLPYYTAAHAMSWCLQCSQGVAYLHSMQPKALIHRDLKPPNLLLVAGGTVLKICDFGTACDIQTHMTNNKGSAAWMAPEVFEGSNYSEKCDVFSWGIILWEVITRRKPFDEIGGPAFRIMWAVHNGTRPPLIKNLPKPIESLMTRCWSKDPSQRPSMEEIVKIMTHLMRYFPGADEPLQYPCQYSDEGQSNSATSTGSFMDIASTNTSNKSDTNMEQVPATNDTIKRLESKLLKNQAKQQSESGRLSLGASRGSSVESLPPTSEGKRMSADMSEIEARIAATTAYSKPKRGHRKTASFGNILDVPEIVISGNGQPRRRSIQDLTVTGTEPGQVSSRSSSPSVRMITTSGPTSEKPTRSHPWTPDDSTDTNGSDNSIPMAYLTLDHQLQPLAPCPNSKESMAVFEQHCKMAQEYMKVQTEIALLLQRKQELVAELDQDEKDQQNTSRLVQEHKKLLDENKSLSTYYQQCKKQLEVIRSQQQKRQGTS

panel of 442 kinases [8] = target: T8, panel of 442 kinases (Homo sapiens, UniProt P53350); settings: kinase PLK1; for remaining activity at 1 µM: read-out: PLK1 (% of control at 1 µM)
T8 construct: purchased Ambit Biosciences (scanMAXX KINOMEscan)
T8 sequence (P53350 whole entry): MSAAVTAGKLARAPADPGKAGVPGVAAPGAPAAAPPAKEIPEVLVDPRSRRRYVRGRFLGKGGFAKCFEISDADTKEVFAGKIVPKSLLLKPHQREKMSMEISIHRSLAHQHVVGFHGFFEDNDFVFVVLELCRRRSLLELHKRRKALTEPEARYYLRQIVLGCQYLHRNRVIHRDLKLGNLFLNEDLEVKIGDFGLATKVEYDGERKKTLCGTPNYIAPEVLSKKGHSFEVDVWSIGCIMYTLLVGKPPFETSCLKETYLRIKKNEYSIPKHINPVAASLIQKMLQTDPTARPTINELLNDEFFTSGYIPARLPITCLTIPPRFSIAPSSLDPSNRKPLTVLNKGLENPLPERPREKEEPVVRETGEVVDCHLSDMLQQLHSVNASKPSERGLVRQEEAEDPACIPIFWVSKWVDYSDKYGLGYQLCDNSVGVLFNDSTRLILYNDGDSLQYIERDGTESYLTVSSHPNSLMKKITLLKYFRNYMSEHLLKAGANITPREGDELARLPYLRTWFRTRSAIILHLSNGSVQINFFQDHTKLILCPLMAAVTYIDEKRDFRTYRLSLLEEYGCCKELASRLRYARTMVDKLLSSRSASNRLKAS

panel of 442 kinases [9] = target: T9, panel of 442 kinases (Homo sapiens, UniProt P08922); settings: kinase ROS1; for remaining activity at 1 µM: read-out: ROS1 (% of control at 1 µM)
T9 construct: purchased Ambit Biosciences (scanMAXX KINOMEscan)

panel of 442 kinases [10] = target: T10, panel of 442 kinases (Homo sapiens, UniProt P51956); settings: kinase NEK3; for remaining activity at 1 µM: read-out: % of control at 1 µM
T10 construct: purchased Ambit Biosciences (scanMAXX KINOMEscan)
T10 sequence (P51956 1-506): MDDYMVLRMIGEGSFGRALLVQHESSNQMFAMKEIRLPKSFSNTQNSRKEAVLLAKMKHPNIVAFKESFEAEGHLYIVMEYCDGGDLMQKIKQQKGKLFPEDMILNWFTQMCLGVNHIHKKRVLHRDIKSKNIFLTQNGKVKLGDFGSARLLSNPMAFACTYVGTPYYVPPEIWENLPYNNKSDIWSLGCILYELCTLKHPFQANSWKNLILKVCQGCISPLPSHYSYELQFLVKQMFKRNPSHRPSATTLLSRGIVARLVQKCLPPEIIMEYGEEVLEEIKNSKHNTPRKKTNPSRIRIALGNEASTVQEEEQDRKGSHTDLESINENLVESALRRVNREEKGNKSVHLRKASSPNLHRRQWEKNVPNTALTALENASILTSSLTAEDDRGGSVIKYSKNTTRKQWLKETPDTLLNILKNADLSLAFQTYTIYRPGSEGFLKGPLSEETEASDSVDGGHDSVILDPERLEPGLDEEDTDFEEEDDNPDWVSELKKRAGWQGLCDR

[11] = 10 µM, read-out: % of control at 10 µM

T1 sequence (P07332 whole entry): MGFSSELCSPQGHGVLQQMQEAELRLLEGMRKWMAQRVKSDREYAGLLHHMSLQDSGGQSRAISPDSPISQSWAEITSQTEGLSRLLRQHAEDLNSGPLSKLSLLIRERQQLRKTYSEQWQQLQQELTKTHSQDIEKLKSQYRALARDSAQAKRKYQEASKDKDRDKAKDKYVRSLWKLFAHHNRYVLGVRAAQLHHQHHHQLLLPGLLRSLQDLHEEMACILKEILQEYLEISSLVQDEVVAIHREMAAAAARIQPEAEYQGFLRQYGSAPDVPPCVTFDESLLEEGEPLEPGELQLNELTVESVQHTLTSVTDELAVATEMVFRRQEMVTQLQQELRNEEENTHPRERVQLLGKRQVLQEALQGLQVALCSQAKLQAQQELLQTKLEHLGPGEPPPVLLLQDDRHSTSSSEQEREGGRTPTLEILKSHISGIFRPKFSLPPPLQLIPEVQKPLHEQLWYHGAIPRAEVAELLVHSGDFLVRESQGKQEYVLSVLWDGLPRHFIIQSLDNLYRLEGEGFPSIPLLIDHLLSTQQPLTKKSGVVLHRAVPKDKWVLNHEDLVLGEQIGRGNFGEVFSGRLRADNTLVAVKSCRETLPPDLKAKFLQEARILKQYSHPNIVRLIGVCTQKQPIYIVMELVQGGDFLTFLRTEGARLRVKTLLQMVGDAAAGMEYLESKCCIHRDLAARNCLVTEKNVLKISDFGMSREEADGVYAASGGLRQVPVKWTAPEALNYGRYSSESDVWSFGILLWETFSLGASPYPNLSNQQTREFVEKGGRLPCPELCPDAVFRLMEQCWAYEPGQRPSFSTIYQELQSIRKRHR

Question: For Nc1cc(C(F)(F)F)c(-c2cc(N3CCOCC3)nc(N3CCOCC3)n2)cn1 [Buparlisib], which remaining activity at 1 µM (panel of 442 kinases [1]) is on record?
Answer: 100%

Question: And the remaining activity at 10 µM (panel of 442 kinases [1]; [11])?
Answer: 100%

Question: And the remaining activity at 1 µM (panel of 442 kinases [2])?
Answer: 100%

Question: What about the remaining activity at 10 µM (panel of 442 kinases [2]; [11]) of the same compound?
Answer: 100%

Question: What about the remaining activity at 1 µM (panel of 442 kinases [3]) of the same compound?
Answer: 100%

Question: What about the remaining activity at 10 µM (panel of 442 kinases [3]; [11]) of the same compound?
Answer: 100%

Question: And the remaining activity at 1 µM (panel of 442 kinases [4])?
Answer: 100%

Question: What about the remaining activity at 10 µM (panel of 442 kinases [4]; [11]) of the same compound?
Answer: 100%

Question: And the remaining activity at 1 µM (panel of 442 kinases [5])?
Answer: 86%

Question: And the remaining activity at 10 µM (panel of 442 kinases [5]; [11])?
Answer: 100%

Question: What about the remaining activity at 1 µM (panel of 442 kinases [6]) of the same compound?
Answer: 93%

Question: What about the remaining activity at 10 µM (panel of 442 kinases [6]; 10 µM, read-out: PLK4 (% of control at 10 µM)) of the same compound?
Answer: 87%

Question: What about the remaining activity at 1 µM (panel of 442 kinases [7]) of the same compound?
Answer: 100%

Question: What about the remaining activity at 10 µM (panel of 442 kinases [7]; 10 µM, read-out: TAK1 (% of control at 10 µM)) of the same compound?
Answer: 100%

Question: And the remaining activity at 1 µM (panel of 442 kinases [8])?
Answer: 65%

Question: What about the remaining activity at 10 µM (panel of 442 kinases [8]; 10 µM, read-out: PLK1 (% of control at 10 µM)) of the same compound?
Answer: 84%

Question: What about the remaining activity at 1 µM (panel of 442 kinases [9]) of the same compound?
Answer: 84%

Question: And the remaining activity at 10 µM (panel of 442 kinases [9]; 10 µM, read-out: ROS1 (% of control at 10 µM))?
Answer: 79%

Question: And the remaining activity at 1 µM (panel of 442 kinases [10])?
Answer: 99%

Question: What about the remaining activity at 10 µM (panel of 442 kinases [10]; [11]) of the same compound?
Answer: 100%

Question: Which results are given for Cn1c(=O)n(-c2ccc(C(C)(C)C#N)cc2)c2c3cc(-c4cnc5ccccc5c4)ccc3ncc21 [Dactolisib, 2-methyl-2-[4-(3-methyl-2-oxo-8-quinolin-3-yl-2,3-dihydroimidazo[4,5-c]quinolin-1-yl)-phenyl] propionitrile]?
Answer: remaining activity at 1 µM (panel of 442 kinases [1]): 92%; remaining activity at 1 µM (panel of 442 kinases [2]): 49%; remaining activity at 1 µM (panel of 442 kinases [3]): 100%; remaining activity at 1 µM (panel of 442 kinases [4]): 89%; remaining activity at 1 µM (panel of 442 kinases [5]): 90%; remaining activity at 1 µM (panel of 442 kinases [6]): 94%; remaining activity at 1 µM (panel of 442 kinases [7]): 55%; remaining activity at 1 µM (panel of 442 kinases [8]): 93%; remaining activity at 1 µM (panel of 442 kinases [9]): 100%; remaining activity at 1 µM (panel of 442 kinases [10]): 78%

Question: Which results are given for COc1ncc(-c2ccc3nccc(-c4ccnnc4)c3c2)cc1NS(=O)(=O)c1ccc(F)cc1F [Omipalisib]?
Answer: remaining activity at 1 µM (panel of 442 kinases [1]): 100%; remaining activity at 1 µM (panel of 442 kinases [2]): 83%; remaining activity at 1 µM (panel of 442 kinases [3]): 100%; remaining activity at 1 µM (panel of 442 kinases [4]): 100%; remaining activity at 1 µM (panel of 442 kinases [5]): 68%; remaining activity at 1 µM (panel of 442 kinases [6]): 61%; remaining activity at 1 µM (panel of 442 kinases [7]): 82%; remaining activity at 1 µM (panel of 442 kinases [8]): 97%; remaining activity at 1 µM (panel of 442 kinases [9]): 100%; remaining activity at 1 µM (panel of 442 kinases [10]): 93%

Question: FC(F)c1nc2ccccc2n1-c1nc(N2CCOCC2)nc(N2CCOCC2)n1 [ZSTK474, 2-(difluoromethyl)-1-[4,6-di(4-morpholinyl)-1,3,5-triazin-2-yl]-1H-benzimidazole] was tested. Which remaining activity at 1 µM (panel of 442 kinases [1]) did it give?
Answer: 100%

Question: And the remaining activity at 1 µM (panel of 442 kinases [2])?
Answer: 100%

Question: What about the remaining activity at 1 µM (panel of 442 kinases [3]) of the same compound?
Answer: 85%

Question: And the remaining activity at 1 µM (panel of 442 kinases [4])?
Answer: 100%

Question: And the remaining activity at 1 µM (panel of 442 kinases [5])?
Answer: 100%

Question: And the remaining activity at 1 µM (panel of 442 kinases [6])?
Answer: 84%

Question: And the remaining activity at 1 µM (panel of 442 kinases [7])?
Answer: 68%

Question: And the remaining activity at 1 µM (panel of 442 kinases [8])?
Answer: 62%

Question: And the remaining activity at 1 µM (panel of 442 kinases [9])?
Answer: 100%

Question: And the remaining activity at 1 µM (panel of 442 kinases [10])?
Answer: 73%
